According to patent US20030162687A1, “Surfactants” (AJINOMOTO CO. INC., priority 2002, published 2003):

Legend:
[1] = Particle diameter distribution by sieve classification; assay type: physicochemical
Method: Content of the 280 mesh pass particles can generally be measured according to JIS Z8815 “General procedures for sieve analysis test”. For example, the content can be determined by sieving particles through a sieve having a mesh size of 280 (53 μm) with vibration using a vibrator, and measuring weight of particles passed through the sieve. The measurement can be carried out, for example, after vibration for 5 minutes with an amplitude of 2.0 mm, and a sieve according to the JIS standard (JIS Z 8801-1) can be used as the sieve. A specific example of the sieving method is given in the examples of the specification, and accordingly, those skilled in the art can measure a content of 280 mesh pass particles by referring to the aforementioned JIS general procedures and descriptions of the examples of the specification.
In the following example, sieve classification was carried out by vibrating a sieve for 5 minutes at an amplitude of 2.0 mm using a vibrator produced by Rctsch. Powdery samples were prepared in a conventional manner by using a spray dryer with sodium N-lauroyl-L-glutamate, sodium N-myristoyl-L-glutamate, sodium N-palmoyl-L-glutamate, and sodium N-cocoyl glycinate as salts of N-long-chain acyl amino acids. Drying was performed under the following conditions.
From the samples dried by the spray drier, 280 mesh pass cut samples, 200 mesh pass cut samples, and 140 mesh pass cut samples were prepared by using sieves. […] Samples that were not subjected to sieve classification were used as controls.

[2] = Flowability by powder tester Model PT-N, Carr's flowability index method; assay type: physicochemical
Method: As for evaluation of flowability, parameters of angle of repose, degree of compaction, spatula angle, and degree of aggregation were measured by using a powder tester Model PT-N produced by HOSOKAWA MICRON CORP. based on the method for evaluating Carr's flowability index.

[3] = 140 mesh pass cut sample (106 μm)
[4] = 200 mesh pass cut sample (75 μm)
[5] = 280 mesh pass cut sample (53 μm)
[6] = control, not subjected to sieve classification

Molecule | Particle diameter distribution 53˜75 μm [1, 3] | Particle diameter distribution 75˜106 μm [1, 3] | Particle diameter distribution 106˜μm [1, 3] | Particle diameter distribution ˜53 μm [1, 3] | Particle diameter distribution 53˜75 μm [1, 4] | Particle diameter distribution 75˜106 μm [1, 4] | Particle diameter distribution 106˜μm [1, 4] | Particle diameter distribution ˜53 μm [1, 4] | Particle diameter distribution 53˜75 μm [1, 5] | Particle diameter distribution 75˜106 μm [1, 5] | Particle diameter distribution 106˜μm [1, 5] | Particle diameter distribution ˜53 μm [1, 5] | Particle diameter distribution 53˜75 μm [1, 6] | Particle diameter distribution 75˜106 μm [1, 6] | Particle diameter distribution 106˜μm [1, 6] | Particle diameter distribution ˜53 μm [1, 6] | Flowability: Angle of repose [2, 3] | Flowability: Degree of aggregation [2, 3] | Flowability: Degree of compaction [2, 3] | Flowability: Spatula angle [2, 3] | also measured
CCCCCCCCCCCC(=O)N[C@@H](CCC(=O)[O-])C(=O)[O-].[Na+].[Na+] [Na lauroylglutamate, sodium N-lauroyl-L-glutamate] | 0% | 0% | 100% | 0% | 0% | 9.6% | 90.4% | 0% | 8.3% | 8.8% | 82.9% | 0% | 7.9% | 8.4% | 79.0% | 4.7% | 29.1 ° | 34.6% | 13.7% | 29.5 ° | Flowability index [2, 3]: 76.0; Flowability index [2, 4]: 77.0; Flowability: Angle of repose [2, 4]: 30.6 °; Flowability: Degree of aggregation [2, 4]: 15.7%; Flowability: Degree of compaction [2, 4]: 12.7%; Flowability: Spatula angle [2, 4]: 31.7 °; Flowability index [2, 5]: 78.0; Flowability: Angle of repose [2, 5]: 28.6 °; Flowability: Degree of aggregation [2, 5]: 12.5%; Flowability: Degree of compaction [2, 5]: 14.0%; Flowability: Spatula angle [2, 5]: 36.7 °; Flowability index [2, 6]: 67.0; Flowability: Angle of repose [2, 6]: 33.0 °; Flowability: Degree of aggregation [2, 6]: 15.1%; Flowability: Degree of compaction [2, 6]: 18.3%; Flowability: Spatula angle [2, 6]: 46.7 °
CCCCCCCCCCCCCC(=O)N[C@@H](CCC(=O)[O-])C(=O)[O-].[Na+].[Na+] [Na myristoylglutamate, sodium N-myristoyl-L-glutamate] | 0% | 0% | 100% | 0% | 0% | 15.1% | 84.9% | 0% | 6.5% | 14.1% | 79.4% | 0% | 6.0% | 13.0% | 73.3% | 7.7% | 30.8 ° | 13.5% | 11.3% | 34.8 ° | Flowability: Angle of repose [2, 4]: 30.1 °; Flowability: Degree of aggregation [2, 4]: 19.9%; Flowability: Degree of compaction [2, 4]: 11.1%; Flowability: Spatula angle [2, 4]: 37.0 °; Flowability: Angle of repose [2, 5]: 31.1 °; Flowability: Degree of aggregation [2, 5]: 15.9%; Flowability: Degree of compaction [2, 5]: 12.8%; Flowability: Spatula angle [2, 5]: 38.8 °; Flowability: Angle of repose [2, 6]: 26.6 °; Flowability: Degree of aggregation [2, 6]: 12.3%; Flowability: Degree of compaction [2, 6]: 16.5%; Flowability: Spatula angle [2, 6]: 49.3 °
CCCCCCCCCCCCCCCC(=O)N[C@@H](CCC(=O)[O-])C(=O)[O-].[Na+].[Na+] [Na palmoylglutamate, sodium N-palmoyl-L-glutamate] | 0% | 0% | 100% | 0% | 0% | 14.4% | 81.3% | 0% | 4.8% | 17.8% | 77.4% | 0% | 4.5% | 16.9% | 73.3% | 5.3% | 32.0 ° | 26.4% | 10.2% | 49.2 ° | Flowability: Angle of repose [2, 4]: 37.4 °; Flowability: Degree of aggregation [2, 4]: 20.6%; Flowability: Degree of compaction [2, 4]: 12.4%; Flowability: Spatula angle [2, 4]: 53.4 °; Flowability: Angle of repose [2, 5]: 35.5 °; Flowability: Degree of aggregation [2, 5]: 21.5%; Flowability: Degree of compaction [2, 5]: 12.4%; Flowability: Spatula angle [2, 5]: 52.4 °; Flowability: Angle of repose [2, 6]: 39.3 °; Flowability: Degree of aggregation [2, 6]: 17.6%; Flowability: Degree of compaction [2, 6]: 15.6%; Flowability: Spatula angle [2, 6]: 59.0 °
sodium N-cocoyl glycinate [Na cocoylglycinate] | 0% | 0% | 100% | 0% | 0% | 9.2% | 90.8% | 0% | 6.5% | 15.3% | 78.2% | 0% | 4.4% | 17.1% | 73.0% | 5.5% | 28.6 ° | 27.9% | 15.6% | 43.4 ° | Flowability: Angle of repose [2, 4]: 31.0 °; Flowability: Degree of aggregation [2, 4]: 28.1%; Flowability: Degree of compaction [2, 4]: 15.1%; Flowability: Spatula angle [2, 4]: 50.0 °; Flowability: Angle of repose [2, 5]: 33.0 °; Flowability: Degree of aggregation [2, 5]: 28.4%; Flowability: Degree of compaction [2, 5]: 14.5%; Flowability: Spatula angle [2, 5]: 56.0 °; Flowability: Angle of repose [2, 6]: 36.7 °; Flowability: Degree of aggregation [2, 6]: 32.8%; Flowability: Degree of compaction [2, 6]: 16.4%; Flowability: Spatula angle [2, 6]: 62.0 °
